Source: US11945806B2, “Stabilization of amyloidogenic immunoglobulin light chains” (The Scripps Research Institute, priority 2019, dated 2024)

These molecules were tested against WIL-FL (Homo sapiens, UniProt P01721) (assay: Unlabeled LC Protease Sensitivity Assay (proteinase K)). Conditions: small molecule 10 μM, WIL-FL 5 μM, proteinase K 50 nM, 2 hours at 37° C.
Type: biochemical
Protocol: Unlabeled LC Protease Sensitivity Assay. WIL-FL (5 μM) in phosphate-buffered saline (PBS, pH 7.4)+0.02% Pluronic F-127 was incubated with proteinase K (50 nM) with small molecule (10 μM) in 1% DMSO vehicle, or vehicle alone. After 2 hours at 37° C., reactions were quenched with 2 mM phenylmethyl sulfonyl fluoride in methanol and centrifuged at 14,000 rpm for 2 minutes. Remaining WIL-FL was quantified by injecting 10 μL of the supernatant into a Waters Acquity H-Class Bio-UPLC (ultra performance liquid chromatography) instrument equipped with a BEH200 analytical size-exclusion column (1.7 μm, 4.6×150 mm) under isocratic conditions (0.2 mL/min, PBS+1 mM EDTA, 2400 psi backpressure, 15 min), monitoring absorbance at 280 nm. Activity of each compound is given as fold protection from protease=(A_compound−A_vehicle)/(A_no_protease−A_vehicle), where each “A” corresponds to peak integration of the respective treatment.

SMILES | Protection (fold protection of LC from protease)
CCN(CC)c1ccc2c(C)c(CCOC(=O)NCc3cnccn3)c(=O)oc2c1 [Compound 91, 2-(7-(diethylamino)-4-methyl-2-oxo-2H-chromen-3-yl)ethyl (pyrazin-2-ylmethyl)carbamate] | B (3 ≤ B < 0.6)
CCN(CC)c1ccc2c(C)c(CCOC(=O)N3CC(C(=O)OC)C3)c(=O)oc2c1 [Compound 104, 1-(2-(7-(diethylamino)-4-methyl-2-oxo-2H-chromen-3-yl)ethyl) 3-methyl azetidine-1,3-dicarboxylate] | A (A < 0.3))
CCN(CC)c1ccc2c(C)c(CCNC(=O)OC(C)(C)C)c(=O)oc2c1 [Compound 69, Tert-butyl (2-(7-(diethylamino)-4-methyl-2-oxo-2H-chromen-3-yl)ethyl)carbamate] | A (A < 0.3))
CCN(CC)c1ccc2c(C)c(CCNC(C)=O)c(=O)oc2c1 [Compound 94, N-(2-(7-(diethylamino)-4-methyl-2-oxo-2H-chromen-3-yl)ethyl)acetamide] | A (A < 0.3))
CCN(CC)c1ccc2c(C)c(CCOC(=O)NCc3ccc(C(=O)O)cc3)c(=O)oc2c1 [Compound 119, 4-((((2-(7-(diethylamino)-4-methyl-2-oxo-2H-chromen-3-yl)ethoxy)carbonyl)amino)methyl)benzoic acid] | B (3 ≤ B < 0.6)
CCN(CC)c1ccc(NC(=O)CN2C(=O)CNC2=O)cc1 [Compound 150, N-(4-(diethylamino)phenyl)-2-(2,5-dioxoimidazolidin-1-yl)acetamide] | A (A < 0.3))
CCN(CC)c1ccc2c(C)c(CCC(=O)NCCc3ccccc3F)c(=O)oc2c1 [Compound 71] | A (A < 0.3))
CCN(CC)c1ccc2c(C)c(CCN3C(=O)NC4(CCNC4)C3=O)c(=O)oc2c1 (stereo not shown) [Compound 179, 3-(2-(7-(diethylamino)-4-methyl-2-oxo-2H-chromen-3-yl)ethyl)-1,3,7-triazaspiro[4.4]nonane-2,4-dione] | B (3 ≤ B < 0.6)
Cc1cc(=O)oc2cc(OCCN)ccc12 [Compound 34, 7-(2-aminoethoxy)-4-methyl-2H-chromen-2-one] | A (A < 0.3))
CCN(CC)c1ccc2c(C)c(CCOC(=O)NCc3cccc(-c4cnccn4)c3)c(=O)oc2c1 [Compound 157, 2-(7-(diethylamino)-4-methyl-2-oxo-2H-chromen-3-yl)ethyl (3-(pyrazin-2-yl)benzyl)carbamate] | C (C ≥ 0.6)
CCN(CC)c1ccc2c(C)c(CCOC(=O)NCC3CCCNC3)c(=O)oc2c1 (stereo not shown) [Compound 146, 2-(7-(diethylamino)-4-methyl-2-oxo-2H-chromen-3-yl)ethyl (piperidin-3-ylmethyl)carbamate] | B (3 ≤ B < 0.6)
CCN(CC)c1ccc2c(C)c(CCOC(=O)NCC3CCN(C)CC3)c(=O)oc2c1 [Compound 148, 2-(7-(diethylamino)-4-methyl-2-oxo-2H-chromen-3-yl)ethyl ((1-methylpiperidin-4-yl)methyl)carbamate] | B (3 ≤ B < 0.6)
CCCOc1ccc2c(C)cc(=O)oc2c1 [Compound 33, 4-methyl-7-propoxy-2H-chromen-2-one] | A (A < 0.3))
Cc1cc(=O)oc2cc(NCCc3ccccc3)ccc12 [Compound 40, 4-methyl-7-(phenethylamino)-2H-chromen-2-one] | A (A < 0.3))
CCN(CC)c1ccc2c(C)c(CCOC(=O)NCc3cc(F)cc(C(N)=O)c3)c(=O)oc2c1 [Compound 145, 2-(7-(diethylamino)-4-methyl-2-oxo-2H-chromen-3-yl)ethyl (3-carbamoyl-5-fluorobenzyl)carbamate] | C (C ≥ 0.6)

Second part, the molecule after the results:

Protection (fold protection of LC from protease) | SMILES
B (3 ≤ B < 0.6) | CCN(CC)c1ccc2c(C)c(CCNC(=O)NCc3ccncc3)c(=O)oc2c1 [Compound 277, 1-(2-(7-(diethylamino)-4-methyl-2-oxo-2H-chromen-3-yl)ethyl)-3-(pyridin-4-ylmethyl)urea]
A (A < 0.3)) | CCN(CC)c1ccc2c(CCCOC(=O)NCc3cccc(-c4c[nH]cn4)c3)cc(=O)oc2c1 [Compound 304, 3-(7-(diethylamino)-2-oxo-2H-chromen-4-yl)propyl (3-(1H-imidazol-4-yl)benzyl)carbamate]
B (3 ≤ B < 0.6) | CCN(CC)c1ccc2c(C)c(CCN3C(=O)NC4(CCN(C(=O)c5cncnc5)CC4)C3=O)c(=O)oc2c1 [Compound 210, 3-(2-(7-(diethylamino)-4-methyl-2-oxo-2H-chromen-3-yl)ethyl)-8-(pyrimidine-5-carbonyl)-1,3,8-triazaspiro[4.5]decane-2,4-dione]
A (A < 0.3)) | Cc1cc(=O)oc2cc(C(=O)Nc3ccc4ncccc4c3)ccc12 [Compound 235, 4-methyl-2-oxo-N-(quinolin-6-yl)-2H-chromene-7-carboxamide]
A (A < 0.3)) | Cc1cc(=O)oc2cc(NCCCF)ccc12 [Compound 251, 7-((3-fluoropropyl)amino)-4-methyl-2H-chromen-2-one]
C (C ≥ 0.6) | CCN(CC)c1ccc2c(C)c(CCNC(=O)NCc3cccc(OCC(=O)OC)c3)c(=O)oc2c1 [Compound 312, Methyl 2-(3-((3-(2-(7-(diethylamino)-4-methyl-2-oxo-2H-chromen-3-yl)ethyl)ureido)methyl)phenoxy)acetate]
A (A < 0.3)) | CCN(CC)c1ccc2c(C)c(CCNC(=O)NCc3ccnc4ccccc34)c(=O)oc2c1 [Compound 287, 1-(2-(7-(diethylamino)-4-methyl-2-oxo-2H-chromen-3-yl)ethyl)-3-(quinolin-4-ylmethyl)urea]
A (A < 0.3)) | C#CCN(CCC)c1ccc2c(C)cc(=O)oc2c1 [Compound 260, 4-methyl-7-(prop-2-yn-1-yl(propyl)amino)-2H-chromen-2-one]
A (A < 0.3)) | CCN(CC)c1ccc2c(C)c(CCOC(=O)NCc3cccc(CCC(=O)OC)c3)c(=O)oc2c1 [Compound 310, Methyl 3-(3-((((2-(7-(diethylamino)-4-methyl-2-oxo-2H-chromen-3-yl)ethoxy)carbonyl)amino)methyl)phenyl)propanoate]
A (A < 0.3)) | C=C(C)CNc1ccc2c(C)cc(=O)oc2c1 [Compound 244, 4-methyl-7-((2-methylallyl)amino)-2H-chromen-2-one]
B (3 ≤ B < 0.6) | CCN(CC)c1ccc2c(C)c(CCN3C(=O)NC4(CCN(C(=O)c5ccncn5)C4)C3=O)c(=O)oc2c1 (stereo not shown) [Compound 207, 3-(2-(7-(diethylamino)-4-methyl-2-oxo-2H-chromen-3-yl)ethyl)-7-(pyrimidine-4-carbonyl)-1,3,7-triazaspiro[4.4]nonane-2,4-dione]
B (3 ≤ B < 0.6) | CCN(CC)c1ccc2c(C)c(CCNC(=O)NCCc3ccc(O)cc3)c(=O)oc2c1 [Compound 280, 1-(2-(7-(diethylamino)-4-methyl-2-oxo-2H-chromen-3-yl)ethyl)-3-(4-hydroxyphenethyl)urea]
A (A < 0.3)) | C=CCCN(C)c1ccc2c(C)cc(=O)oc2c1 [Compound 256, 7-(but-3-en-1-yl(methyl)amino)-4-methyl-2H-chromen-2-one]
